From the supplement of paper PMC10307832

How the values were obtained:
Experiment in all cases: relative viability (nuclei count vs DMSO), 5 days (fraction); higher = more cells survive
[1] = compound: O=C(O)c1ccc2c(c1)nc(Nc1cccc(Cl)c1)c1ccncc12 [Silmitasertib] + CC(C)C[C@H](NC(=O)[C@H](Cc1ccccc1)NC(=O)c1cnccn1)B(O)O [Bortezomib] (partner 0.002 µM)
Summary of the method: (§1)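 Lung cancer cell lines in 1536-well plates were dosed by pin tool the day after seeding, either with one drug alone or with a fixed anchor-drug dose plus five library-drug doses (not always all listed) in √10 steps. After 5 days, cells were fixed and their nuclei stained in one step (final 0.05% Triton X-100, 1% formaldehyde, 1 ug/ml Hoechst), then counted on 4× images. Relative viability is the nuclei count in treated wells divided by that in vehicle wells. Values are medians of duplicate plates.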

[2] = compound: O=C(O)c1ccc2c(c1)nc(Nc1cccc(Cl)c1)c1ccncc12 [Silmitasertib] + CC1(C)CCC(c2ccc(Cl)cc2)=C(CN2CCN(c3ccc(C(=O)NS(=O)(=O)c4ccc(N[C@H](CCN5CCOCC5)CSc5ccccc5)c(S(=O)(=O)C(F)(F)F)c4)cc3)CC2)C1 [Navitoclax] (partner 0.5 µM)
Summary of the method: as §1

Silmitasertib + OSI-027 = compound: O=C(O)c1ccc2c(c1)nc(Nc1cccc(Cl)c1)c1ccncc12 [Silmitasertib] + COc1cccc2cc(-c3nc([C@H]4CC[C@H](C(=O)O)CC4)n4ncnc(N)c34)[nH]c12 [OSI-027] (partner 0.5 µM)
Summary of the method: as §1

[3] = compound: O=C(O)c1ccc2c(c1)nc(Nc1cccc(Cl)c1)c1ccncc12 [Silmitasertib] + CS(=O)(=O)CCNCc1ccc(-c2ccc3ncnc(Nc4ccc(OCc5cccc(F)c5)c(Cl)c4)c3c2)o1 [Lapatinib] (partner 2 µM)
Summary of the method: as §1

[4] = compound: O=C(O)c1ccc2c(c1)nc(Nc1cccc(Cl)c1)c1ccncc12 [Silmitasertib] + CS(=O)(=O)N1CCN(Cc2cc3nc(-c4cccc5[nH]ncc45)nc(N4CCOCC4)c3s2)CC1 [Pictilisib] (partner 1 µM)
Summary of the method: as §1

Row | Cell Line | relative viability ([1]; first compound 0.04 µM) | relative viability ([1]; first compound 0.4 µM) | relative viability ([1]; first compound 1.265 µM) | relative viability ([1]; first compound 4 µM) | relative viability ([2]; first compound 0.04 µM) | relative viability ([2]; first compound 0.4 µM) | relative viability ([2]; first compound 1.265 µM) | relative viability ([2]; first compound 4 µM) | relative viability (Silmitasertib + OSI-027; first compound 0.04 µM) | relative viability (Silmitasertib + OSI-027; first compound 0.4 µM) | relative viability (Silmitasertib + OSI-027; first compound 1.265 µM) | relative viability (Silmitasertib + OSI-027; first compound 4 µM) | relative viability ([3]; first compound 0.04 µM) | relative viability ([3]; first compound 0.4 µM) | relative viability ([3]; first compound 1.265 µM) | relative viability ([3]; first compound 4 µM) | relative viability ([4]; first compound 0.04 µM) | relative viability ([4]; first compound 0.4 µM) | relative viability ([4]; first compound 1.265 µM) | relative viability ([4]; first compound 4 µM)
1 | NCI-H727 | 1 | 0.608 | 0.736 | 0.516 | 0.425 | 0.343 | 0.365 | 0.275 | 0.701 | 0.426 | 0.48 | 0.488 | 1.05 | 0.608 | 0.855 | 0.527 | 0.608 | 0.392 | 0.381 | 0.32
2 | HOP-62 | 0.504 | – | 0.425 | 0.486 | 0.996 | – | 0.961 | 0.849 | 0.897 | – | 0.905 | 0.497 | 1.07 | – | 0.878 | 0.229 | 0.809 | – | 0.654 | 0.279
3 | RERF-LC-KJ | 1.15 | 0.95 | 0.779 | 0.574 | 0.863 | 0.85 | 0.782 | 0.436 | 0.627 | 0.484 | 0.41 | 0.373 | 0.859 | 0.819 | 0.767 | 0.516 | 0.629 | 0.494 | 0.366 | 0.323
4 | HCC-44 | 0.858 | 0.753 | 0.883 | 0.49 | 0.926 | 0.874 | 0.892 | 0.928 | 0.524 | 0.606 | 0.508 | 0.29 | 0.968 | 0.916 | 1.02 | 0.699 | 0.579 | 0.452 | 0.549 | 0.351
5 | NCI-H1915 | 1.01 | – | 1.02 | 0.424 | 0.839 | – | 0.888 | 0.64 | 0.624 | – | 0.676 | 0.351 | 0.994 | – | 1.02 | 0.397 | 1.02 | – | 0.956 | 0.408
6 | PC-14 | 0.946 | 0.788 | 0.871 | 0.819 | 1.12 | 1.09 | 1.07 | 1.11 | 1.03 | 0.537 | 0.706 | 0.46 | 0.325 | 0.347 | 0.381 | 0.391 | 0.629 | 0.661 | 0.566 | 0.646
7 | SK-LU-1 | 1.33 | 0.735 | 0.801 | 0.394 | 0.984 | 0.532 | 0.671 | 0.217 | 0.432 | 0.248 | 0.223 | 0.197 | 0.995 | 0.649 | 0.369 | 0.388 | 0.685 | 0.448 | 0.359 | 0.212
8 | NCI-H1437 | 0.594 | – | 0.384 | 0.474 | 1.11 | – | 0.906 | 0.828 | 0.946 | 0.623 | 0.598 | 0.457 | 0.865 | – | 0.483 | 0.347 | 0.42 | – | 0.261 | 0.217
9 | NCI-H1734 | 0.911 | – | 0.827 | 0.841 | 0.884 | – | 0.781 | 0.737 | 0.626 | 0.522 | 0.593 | 0.497 | 1.14 | – | 0.948 | 0.785 | 0.514 | – | 0.424 | 0.313
10 | HCC-15 | 1.02 | 0.655 | 0.856 | 0.408 | 0.745 | 0.556 | 0.548 | 0.438 | 0.761 | 0.552 | 0.437 | 0.24 | 0.91 | 0.52 | 0.676 | 0.321 | 0.772 | 0.535 | 0.493 | 0.238
11 | HCC-366 | 1.1 | – | 0.995 | 0.482 | 1.15 | – | 0.921 | 0.82 | 0.896 | 0.489 | 0.7 | 0.0818 | 1.2 | – | 0.784 | 0.12 | 0.138 | 0.137 | 0.0849 | 0.141
12 | NCI-H2347 | 1.27 | 0.593 | 0.881 | 0.652 | 0.891 | 0.692 | 0.745 | 0.665 | 0.414 | – | 0.398 | 0.336 | 0.944 | 0.77 | 0.759 | 0.508 | 0.739 | 0.829 | 0.665 | 0.82
13 | LXF-289 | 1.02 | – | 1.05 | 0.979 | 0.917 | – | 1.01 | 1 | 0.78 | – | 0.805 | 0.532 | 0.931 | – | 0.999 | 1 | 0.808 | – | 0.772 | 0.79
14 | BEN | 0.9 | 0.584 | 0.644 | 0.599 | 0.0617 | 0.0687 | 0.059 | 0.0431 | 0.317 | – | 0.336 | 0.269 | 0.691 | 0.637 | 0.589 | 0.445 | 0.628 | 0.524 | 0.493 | 0.476
15 | NCI-H2023 | 1.13 | 0.557 | 0.946 | 0.282 | 0.999 | 1.01 | 0.96 | 0.73 | 0.503 | 0.345 | 0.343 | 0.251 | 1.05 | 0.373 | 0.767 | 0.159 | 0.275 | 0.275 | 0.194 | 0.179
